In patent US20240002416A1 (Rheinische-Friedrich-Wilhelms-Universität Bonn, priority 2020, published 2024):

Key:
MRGPRX4-83S [1] = target: T1, MRGPRX4-83S (Homo sapiens, UniProt Q96LA9, L83S); assay: Calcium assay (human glioblastoma LN229 cells expressing the MRGPRX4-83S); type: cell-based; set-up: LN229 glioblastoma cells natively expressing the MRGPRX4-83S; endogenous in cells; host or cells: LN229 human glioblastoma cells; conditions: for EC50 / Emax: Table 3; for EC50: calcium mobilization, LN229 cells, MRGPRX4-83S, read-out: EC50 ± SEM; for Emax: LN-229, efficacy based on 30 μM H-1 (set as 100%), read-out: Emax
T1 sequence (Q96LA9 whole entry L83S): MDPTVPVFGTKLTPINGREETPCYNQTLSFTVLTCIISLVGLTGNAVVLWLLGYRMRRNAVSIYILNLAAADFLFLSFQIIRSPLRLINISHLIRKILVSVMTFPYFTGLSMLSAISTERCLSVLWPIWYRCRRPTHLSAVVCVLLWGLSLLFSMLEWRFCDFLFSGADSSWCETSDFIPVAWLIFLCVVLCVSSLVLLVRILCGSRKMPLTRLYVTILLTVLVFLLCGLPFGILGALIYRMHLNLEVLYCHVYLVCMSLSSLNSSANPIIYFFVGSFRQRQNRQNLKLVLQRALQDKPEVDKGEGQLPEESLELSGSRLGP
Description: For β-arrestin recruitment assays, recombinant Chinese hamster ovary (CHO) cells expressing the human MRGPRX4 were used (DiscoverX/Eurofins) which allowed to measure β-galactosidase complementation upon β-arrestin recruitment. For calcium mobilization assays, recombinant astrocytes expressing MRGPX4-83L, or LN229 glioblastoma cells natively expressing the MRGPRX4-83S, were used.
The assays were performed as previously described for other rhodopsin-like GPCRs (Müller, C.E.; 8-Benzamidochromen-4-one-2-carboxylic acids: potent and selective agonists for the orphan G protein-coupled receptor GPR35. J. Med. Chem. 2013, 56:5182-97; Müller, C.E. Molecular Recognition of Agonists and Antagonists by the Nucleotide-Activated G Protein-Coupled P2Y2 Receptor. J. Med. Chem. 2017, 60:8425-8440).

MRGPRX4-83S [2] = target: T1, MRGPRX4-83S; assay: β-arrestin assay (CHO β-arrestin human MRGPRX4-83S); type: cell-based; set-up: host or cells: CHO β-arrestin cells; conditions: for Emax: efficacy based on 100 nM B-16 (set as 100%), read-out: Emax; for EC50: β-arrestin recruitment, CHO cells, MRGPRX4-83S, read-out: EC50 ± SEM
Method in brief: (§1)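 Read-out for arrestin: β-galactosidase complementation upon β-arrestin recruitment in recombinant CHO cells. Ca2+ flux: astrocytes carrying MRGPRX4-83L; LN229 glioblastoma line with native 83S expression.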

human MRGPRX4-83L [3] = target: T2, human MRGPRX4-83L (Homo sapiens, UniProt Q96LA9); assay: β-arrestin assay (CHO β-arrestin ARMS1-ProLink 2 human MRGPRX4 83L); type: cell-based; conditions: for IC50: inhibition of the effect of 2.6 μM B-16; for EC50: β-arrestin recruitment, CHO cells, MRGPRX4-83L, read-out: EC50 ± SEM; for Emax: efficacy based on maximal effect of 100 nM B-16 (set as 100%), read-out: Emax
T2 construct: host or cells: CHO β-arrestin cells
T2 sequence (Q96LA9 whole entry): as the sequence (Q96LA9 whole entry L83S) above, with S83L counted along it
Method in brief: as §1

human MRGPRX4-83L [4] = target: T2, human MRGPRX4-83L; assay: Calcium assay (human MRGPRX4 83L), recombinant astrocytes; type: cell-based; conditions: for EC50: calcium mobilization, MRGPRX4-83L, read-out: EC50 ± SEM; for Emax: efficacy based on maximal effect of 1 μM B-16 (set as 100%), read-out: Emax
Method in brief: as §1

[5] = Table 1, means of 3-4 experiments

Row | Structure (SMILES) | melting point [°C] | EC50 (MRGPRX4-83S [2]; Table 3) [nM] | IC50 (human MRGPRX4-83L [3]; Table 1) [µM] | EC50 (human MRGPRX4-83L [3]; [5]) [µM] | EC50 (MRGPRX4-83S [2]; Table 2) [nM] | IC50 (human MRGPRX4-83L [4]) [µM] | EC50 (human MRGPRX4-83L [4]; Table 1) [µM] | other results
1 | C#CCn1c(=O)c2c(nc(CCc3ccc(-c4ccccc4)cc3)n2CC2CCCC2)n(CCCCP(=O)(O)O)c1=O [B-44, (4-(8-(2-([1,1′-biphenyl]-4-yl)ethyl)-7-(cyclopentylmethyl)-2,6-dioxo-1-(prop-2-yn-1-yl)-1,2,6,7-tetrahydro-3H-purin-3-yl)butyl)phosphonic acid] | 156 to 158 | 2.12 ± 0.85 |  |  |  |  |  | IC50 (MRGPRX4-83S [1]): 0.0873 ± 0.012 nM; EC50 (MRGPRX4-83S [1]): > 10 µM; Emax (MRGPRX4-83S [2]; Table 3): 43%
2 | C#CCn1c(=O)c2c(nc(CCc3ccccc3Br)n2C(C)CC)n(CCCCP(=O)(O)O)c1=O (stereo not shown) [B-49, (4-(8-(2-bromophenethyl)-7-(sec-butyl)-2,6-dioxo-1-(prop-2-yn-1-yl)-1,2,6,7-tetrahydro-3H-purin-3-yl)butyl)phosphonic acid] | 105 to 107 | 0.0751 ± 0.0229 |  |  |  |  |  | Emax (MRGPRX4-83S [1]): 119%; EC50 (MRGPRX4-83S [1]): 0.000491 ± 0.000192 µM; Emax (MRGPRX4-83S [2]; Table 3): 103%
3 | CCOP(=O)(CCCCn1c(=O)n(CC)c(=O)c2[nH]c(C3CC3c3ccccc3)nc21)OCC (stereo not shown) [C-9, Diethyl (4-(1-ethyl-2,6-dioxo-8-(2-phenylcyclopropyl)-1,2,6,7-tetrahydro-3H-purin-3-yl)butyl)phosphonate] | 124 to 126 |  | > 10 | > 10 | > 10000 | > 10 | > 10 | 
4 | C#CCn1c(=O)c2[nH]c(CCc3ccccc3Br)nc2n(CCCCCC(=O)O)c1=O [G-3, 6-(8-(2-Bromophenethyl)-2,6-dioxo-1-(prop-2-yn-1-yl)-1,2,6,7-tetrahydro-3H-purin-3-yl) hexanoic acid] | 192 to 194 | > 100000 |  |  |  |  |  | EC50 (MRGPRX4-83S [1]): > 10 µM
5 | C#CCn1c(=O)c2[nH]c(CCc3ccccc3Br)nc2n(CCCCP(=O)(O)O)c1=O [B-8, (4-(8-(2-Bromophenethyl)-2,6-dioxo-1-(prop-2-yn-1-yl)-1,2,6,7-tetrahydro-3H-purin-3-yl)butyl)phosphonic acid] | 209 to 212 |  |  | 0.243 ± 0.045 | 3.15 ± 0.82 |  | 0.0227 ± 0.0072 | Emax (human MRGPRX4-83L [3]; Table 1): 98%; Emax (MRGPRX4-83S [2]; Table 2): 143%; Emax (human MRGPRX4-83L [4]; Table 1): 114%
6 | C#CCn1c(=O)c2c(nc(CCc3ccccc3C)n2CC)n(CCCCP(=O)(O)O)c1=O [B-32, (4-(7-Ethyl-8-(2-methylphenethyl)-2,6-dioxo-1-(prop-2-yn-1-yl)-1,2,6,7-tetrahydro-3H-purin-3-yl)butyl)phosphonic acid] | 152 to 154 | 0.0424 ± 0.015 |  |  |  |  |  | Emax (MRGPRX4-83S [1]): 111%; EC50 (MRGPRX4-83S [1]): 0.000441 ± 0.000157 µM; Emax (MRGPRX4-83S [2]; Table 3): 97%
7 | C#CCn1c(=O)c2c(nc(CCc3ccccc3OC)n2C)n(CCCCP(=O)(OCC)OCC)c1=O [C-2, Diethyl (4-(8-(2-methoxyphenethyl)-7-methyl-2,6-dioxo-1-(prop-2-yn-1-yl)-1,2,6,7-tetrahydro-3H-purin-3-yl)butyl)phosphonate] | 124 to 146 |  | > 10 | > 10 | > 10000 | > 10 | > 10 | 
8 | C#CCn1c(=O)c2c(nc(CCc3ccc(I)cc3)n2CC2CCCC2)n(CCCCP(=O)(O)O)c1=O [B-39, (4-(7-(cyclopentylmethyl)-8-(4-iodophenethyl)-2,6-dioxo-1-(prop-2-yn-1-yl)-1,2,6,7-tetrahydro-3H-purin-3-yl)butyl)phosphonic acid] | 119 to 121 | 0.773 ± 0.106 |  |  |  |  |  | IC50 (MRGPRX4-83S [1]): 16.1 ± 8.4 nM; Emax (MRGPRX4-83S [1]): 23%; EC50 (MRGPRX4-83S [1]): 0.143 ± 0.066 µM; Emax (MRGPRX4-83S [2]; Table 3): 76%
9 | C#CCn1c(=O)c2[nH]c(CCc3ccccc3OC)nc2n(CCCCP(=O)(OCC)OCC)c1=O [C-1, Diethyl (4-(8-(2-Methoxyphenethyl)-2,6-dioxo-1-(prop-2-yn-1-yl)-1,2,6,7-tetrahydro-3H-purin-3-yl)butyl)phosphonate] | 104 to 106 |  | > 10 | > 10 | > 10000 | > 10 | > 10 | 
10 | C#CCn1c(=O)c2[nH]c(CCc3ccccc3OC)nc2n(CCCCC(=O)O)c1=O [G-1, 5-(8-(2-Methoxyphenethyl)-2,6-dioxo-1-(prop-2-yn-1-yl)-1,2,6,7-tetrahydro-3H-purin-3-yl)pentanoic acid] | 196 to 198 |  | > 10 | > 10 | > 10000 | > 10 | > 10 | 
11 | C#CCn1c(=O)c2c(nc(CCc3cccc(C(F)(F)F)c3)n2C)n(CCCCP(=O)(OCC)OCC)c1=O [C-5, Diethyl (4-(7-methyl-2,6-dioxo-1-(prop-2-yn-1-yl)-8-(3-(trifluoromethyl)phenethyl)-1,2,6,7-tetrahydro-3H-purin-3-yl)butyl)phosphonate] | 121 to 124 |  | > 10 | > 10 | > 10000 | > 10 | > 10 | 
12 | C#CCn1c(=O)c2[nH]c(CCc3ccccc3Cl)nc2n(CCCCP(=O)(O)O)c1=O [B-9, (4-(8-(2-Chlorophenethyl)-2,6-dioxo-1-(prop-2-yn-1-yl)-1,2,6,7-tetrahydro-3H-purin-3-yl)butyl)phosphonic acid] | 207 to 209 |  |  | 1.26 ± 0.27 | 3.45 ± 0.28 |  | 0.0552 ± 0.0017 | Emax (human MRGPRX4-83L [3]; Table 1): 107%; Emax (MRGPRX4-83S [2]; Table 2): 116%; Emax (human MRGPRX4-83L [4]; Table 1): 107%
13 | C#CCn1c(=O)c2c(nc(CCc3ccccc3I)n2CC)n(CCCCP(=O)(O)O)c1=O [B-31, (4-(7-Ethyl-8-(2-iodophenethyl)-2,6-dioxo-1-(prop-2-yn-1-yl)-1,2,6,7-tetrahydro-3H-purin-3-yl)butyl)phosphonic acid] | 202 to 204 | 0.0937 ± 0.0523 |  |  |  |  |  | Emax (human MRGPRX4-83L [3]; Table 4): 94%; EC50 (human MRGPRX4-83L [3]; Table 4): 0.0874 ± 0.0242 µM; Emax (MRGPRX4-83S [2]; Table 3): 89%; EC50 (human MRGPRX4-83L [4]; Table 4): 0.000389 ± 9.2e-05 µM; Emax (human MRGPRX4-83L [4]; Table 4): 103%
14 | CCOP(=O)(CCCCn1c(=O)n(CC2CCC2)c(=O)c2[nH]c(CCc3cccc(OC)c3)nc21)OCC [C-7, Diethyl (4-(1-(cyclobutylmethyl)-8-(3-methoxyphenethyl)-2,6-dioxo-1,2,6,7-tetrahydro-3H-purin-3-yl)butyl)phosphonate] | 82 to 84 |  | > 10 | > 10 | > 10000 | > 10 | > 10 | 
15 | C#CCn1c(=O)c2[nH]c(CCc3cccc(Br)c3)nc2n(CCCCP(=O)(OCC)OCC)c1=O [C-3, Diethyl (4-(8-(3-bromophenethyl)-2,6-dioxo-1-(prop-2-yn-1-yl)-1,2,6,7-tetrahydro-3H-purin-3-yl)butyl)phosphonate] | 133 to 135 |  | > 10 | > 10 | > 10000 | > 10 | > 10 | 
16 | C#CCn1c(=O)c2[nH]c(CCc3ccccc3Br)nc2n(CCCCS(N)(=O)=O)c1=O [F-1, 4-(8-(2-Bromophenethyl)-2,6-dioxo-1-(prop-2-yn-1-yl)-1,2,6,7-tetrahydro-3H-purin-3-yl)butane-1-sulfonamide] | 216 to 219 |  | > 10 | > 10 | > 10000 | > 10 | > 10 | 
17 | C#CCn1c(=O)c2[nH]c(CCc3cccc(C)c3)nc2n(CCCCP(=O)(OCC)OCC)c1=O [C-4, Diethyl (4-(8-(3-methylphenethyl)-2,6-dioxo-1-(prop-2-yn-1-yl)-1,2,6,7-tetrahydro-3H-purin-3-yl)butyl)phosphonate] | 111 to 113 |  | > 10 | > 10 | > 10000 | > 10 | > 10 | 
18 | C#CCn1c(=O)c2[nH]c(CCc3ccccc3OC)nc2n(CCCCP(=O)(O)OCC)c1=O [D-2, Ethyl hydrogen (4-(8-(2-methoxyphenethyl)-2,6-dioxo-1-(prop-2-yn-1-yl)-1,2,6,7-tetrahydro-3H-purin-3-yl)butyl)phosphonate] | 172 to 174 |  |  | 0.113 ± 0.033 | 0.493 ± 0.104 |  | 3.32 ± 0.61 | Emax (human MRGPRX4-83L [3]; Table 1): 122%; Emax (MRGPRX4-83S [2]; Table 2): 141%; Emax (human MRGPRX4-83L [4]; Table 1): 103%
